Reference: ChEMBL document CHEMBL1759920, “C20-trifluoro-5-oxo-ETE: a metabolically stable 5-oxo-ETE derivative” (Bioorg Med Chem Lett, 2011)
The source made the active and inactive calls. No cut-off for these calls is given here.

Experiments:
[1] = system: Neutrophil; test: Induction of intracellular calcium level in indo-1-labeled human neutrophils cells assessed as calcium mobilization; assay type: functional, cell-based
[2] = target: T1, Oxoeicosanoid receptor 1 (Homo sapiens, UniProt Q8TDS5); test: Desensitization of 5-oxo-ETE receptor in indo-1-labeled human neutrophils assessed as inhibition of 5-oxo-ETE-induced calcium mobilization; assay type: functional
T1 sequence (Q8TDS5 whole entry): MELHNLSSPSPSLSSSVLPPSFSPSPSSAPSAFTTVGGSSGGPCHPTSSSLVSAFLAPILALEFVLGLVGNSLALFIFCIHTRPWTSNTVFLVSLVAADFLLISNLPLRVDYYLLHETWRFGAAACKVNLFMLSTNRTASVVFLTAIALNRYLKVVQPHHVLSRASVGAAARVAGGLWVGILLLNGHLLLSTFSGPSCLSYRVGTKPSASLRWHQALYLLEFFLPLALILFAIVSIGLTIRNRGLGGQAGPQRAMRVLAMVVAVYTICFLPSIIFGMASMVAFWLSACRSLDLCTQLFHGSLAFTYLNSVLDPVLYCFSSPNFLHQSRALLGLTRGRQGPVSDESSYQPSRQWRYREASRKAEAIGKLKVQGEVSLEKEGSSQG

[3] = target: T1, Oxoeicosanoid receptor 1; test: Agonist activity at 5-oxo-ETE receptor in indo-1-labeled human neutrophils assessed as stimulation intracellular calcium level at 100 nM followed by 5-oxo-ETE addition at 2.5 mins in presence of digitonin added at 3.5 mins; assay type: functional, cell-based
[4] = system: Neutrophil; test: Induction of intracellular calcium level in indo-1-labeled human neutrophils cells assessed as calcium mobilization relative to 5-oxo-ETE; assay type: functional

| EC50 [1] [nM] | Activity [3] | Structure (SMILES) | IC50 [2] [nM] | Activity [4] [%] |
| --- | --- | --- | --- | --- |
| 4 | – | CCCCC/C=C\C/C=C\C/C=C\C=C\C(=O)CCCC(=O)O [5-OXO-ETE] | 3 | – |
| – | Active | O=C(O)CCCC(=O)/C=C/C=C\C/C=C\C/C=C\CCCCC(F)(F)F | 7.5 | 50 |
